Laboratory results published in US7754880B2, “Uracils having a herbicidal activity” (Isagro Ricerca S.r.l., priority 2002, dated 2010).

| melting point | SMILES |
| --- | --- |
| 82 °C | Cn1c(C(F)(F)F)cc(=O)n(-c2cc(OCc3nnn[nH]3)c(Cl)cc2F)c1=O [Compound No 7, 3-[4-chloro-2-fluoro-5-(tetrazol-5-ylmethoxy)phenyl]-1-methyl-6-(trifluoromethyl)-2,4(1H,3H)-pyrimidinedione] |
| 60 °C | CCn1nnnc1COc1cc(-n2c(=O)cc(C(F)(F)F)n(C)c2=O)c(F)cc1Cl [Compound No 9, 3-{4-chloro-2-fluoro-5-[(1-ethyl-1H-tetrazol-5-yl)methoxy]phenyl}-1-methyl-6-(trifluoromethyl)-2,4(1H,3H)-pyrimidinedione] |
| 243 °C | COC(=O)Cn1nnnc1COc1cc(-n2c(=O)cc(C(F)(F)F)n(C)c2=O)c(F)cc1Cl [Compound No 10, methyl [5-({2-chloro-4-fluoro-5-[1,2,3,6-tetrahydro-3-methyl-2,6-dioxo-4-(trifluoromethyl)pyrimidin-1-yl]phenoxy}methyl)-1H-tetrazol-1-yl]acetate] |
| 172 °C | COC(=O)Cn1nnc(-c2cc(-n3c(=O)cc(C(F)(F)F)n(C)c3=O)ccc2Cl)n1 [Compound No 17, methyl (5-{2-chloro-5-[1,2,3,6-tetrahydro-3-methyl-2,6-dioxo-4-(trifluoromethyl)pyrimidin-1-yl]phenyl}-2H-tetrazol-2-yl)acetate] |
| 130 °C | COC(=O)Cn1nnnc1-c1cc(-n2c(=O)cc(C(F)(F)F)n(C)c2=O)ccc1Cl [Compound No 18, methyl (5-{2-chloro-5-[1,2,3,6-tetrahydro-3-methyl-2,6-dioxo-4-(trifluoromethyl)pyrimidin-1-yl]phenyl}-1H-tetrazol-1-yl)acetate] |
| 90 °C | Cn1c(C(F)(F)F)cc(=O)n(-c2cc(Oc3nnc(C(F)(F)F)s3)c(Cl)cc2Cl)c1=O [Compound No 84, 3-(2,4-dichloro-5-{[5-(trifluoromethyl)-1,3,4-thiadiazol-2-yl]oxy}phenyl)-1-methyl-6-(trifluoromethyl)-2,4(1H,3H)-pyrimidinedione] |
| 128 °C | CCOC(=O)/C=C(\COc1cc(-n2c(=O)cc(C(F)(F)F)n(C)c2=O)c(Cl)cc1Cl)OC [Compound No 99, ethyl (2E)-4-{2,4-dichloro-5-[1,2,3,6-tetrahydro-3-methyl-2,6-dioxo-4-(trifluoromethyl)pyrimidin-1-yl]phenoxy}-3-methoxybut-2-enoate] |
| 78 °C | CCOC(=O)/C=C(\COc1cc(-n2c(=O)cc(C(F)(F)F)n(C)c2=O)c(F)cc1Cl)OC [Compound No 100, ethyl (2E)-4-{2-chloro-4-fluoro-5-[1,2,3,6-tetrahydro-3-methyl-2,6-dioxo-4-(trifluoromethyl)pyrimidin-1-yl]phenoxy}-3-methoxybut-2-enoate] |
| 182 °C | COCn1nnnc1-c1cc(-n2c(=O)cc(C(F)(F)F)n(C)c2=O)ccc1Cl [Compound No 102, 3-{4-chloro-3-[1-(methoxymethyl)-1H-tetrazol-5-yl]phenyl}-1-methyl-6-(trifluoromethyl)-2,4(1H,3H)-pyrimidinedione] |
| 140 °C | CCOCn1nnc(-c2cc(-n3c(=O)cc(C(F)(F)F)n(C)c3=O)ccc2Cl)n1 [Compound No 103, 3-{4-chloro-3-[2-(ethoxymethyl)-2H-tetrazol-5-yl]phenyl}-1-methyl-6-(trifluoromethyl)-2,4(1H,3H)-pyrimidinedione] |
| 116 °C | C=CCn1nnc(-c2cc(-n3c(=O)cc(C(F)(F)F)n(C)c3=O)ccc2Cl)n1 [Compound No 105, 3-[3-(2-allyl-2H-tetrazol-5-yl)-4-chlorophenyl]-1-methyl-6-(trifluoromethyl)-2,4(1H,3H)-pyrimidinedione] |
| 154 °C | Cc1cc(COc2cc(-n3c(=O)cc(C(F)(F)F)n(C)c3=O)c(F)cc2Cl)on1 [Compound No 107, 3-{4-chloro-2-fluoro-5-[(3-methylisoxazol-5-yl)methoxy]phenyl}-1-methyl-6-(trifluoromethyl)-2,4(1H,3H)-pyrimidinedione] |

Further lines, the compound ahead of its results:

| SMILES | melting point |
| --- | --- |
| COC(=O)/C=C(\COc1cc(-n2c(=O)cc(C(F)(F)F)n(C)c2=O)c(Cl)cc1Cl)OC [Compound No 3, methyl (2E)-4-{2,4-dichloro-5-[1,2,3,6-tetrahydro-3-methyl-2,6-dioxo-4-(trifluoromethyl)pyrimidin-1-yl]phenoxy}-3-methoxybut-2-enoate] | 116 °C |
| CCn1nnc(COc2cc(-n3c(=O)cc(C(F)(F)F)n(C)c3=O)c(F)cc2Cl)n1 [Compound No 8, 3-{4-chloro-2-fluoro-5-[(2-ethyl-2H-tetrazol-5-yl)methoxy]phenyl}-1-methyl-6-(trifluoromethyl)-2,4(1H,3H)-pyrimidinedione] | 126 °C |
| COC(=O)Cn1nnc(COc2cc(-n3c(=O)cc(C(F)(F)F)n(C)c3=O)c(F)cc2Cl)n1 [Compound No 11, methyl [5-({2-chloro-4-fluoro-5-[1,2,3,6-tetrahydro-3-methyl-2,6-dioxo-4-(trifluoromethyl)pyrimidin-1-yl]phenoxy}methyl)-2H-tetrazol-2-yl]acetate] | 65 °C |
| Cn1nnnc1-c1cc(-n2c(=O)cc(C(F)(F)F)n(C)c2=O)ccc1Cl [Compound No 14, 3-[4-chloro-3-(1-methyl-1H-tetrazol-5-yl)phenyl]-1-methyl-6-(trifluoromethyl)-2,4(1H,3H)-pyrimidinedione] | 185 °C |
| CCn1nnc(-c2cc(-n3c(=O)cc(C(F)(F)F)n(C)c3=O)ccc2Cl)n1 [Compound No 15, 3-[4-chloro-3-(2-ethyl-2H-tetrazol-5-yl)phenyl]-1-methyl-6-(trifluoromethyl)-2,4(1H,3H)-pyrimidinedione] | 136 °C |
| CCn1nnnc1-c1cc(-n2c(=O)cc(C(F)(F)F)n(C)c2=O)ccc1Cl [Compound No 16, 3-[4-chloro-3-(1-ethyl-1H-tetrazol-5-yl)phenyl]-1-methyl-6-(trifluoromethyl)-2,4(1H,3H)-pyrimidinedione] | 202 °C |
| Cn1nnc(COc2cc(-n3c(=O)cc(C(F)(F)F)n(C)c3=O)c(F)cc2Cl)n1 [Compound No 42, 3-{4-chloro-2-fluoro-5-[(2-methyl-2H-tetrazol-5-yl)methoxy]phenyl}-1-methyl-6-(trifluoromethyl)-2,4(1H,3H)-pyrimidinedione] | 167 °C |
| COCn1nnc(-c2cc(-n3c(=O)cc(C(F)(F)F)n(C)c3=O)ccc2Cl)n1 [Compound No 101, 3-{4-chloro-3-[2-(methoxymethyl)-2H-tetrazol-5-yl]phenyl}-1-methyl-6-(trifluoromethyl)-2,4(1H,3H)-pyrimidinedione] | 80 °C |
| CCOCn1nnnc1-c1cc(-n2c(=O)cc(C(F)(F)F)n(C)c2=O)ccc1Cl [Compound No 104, 3-{4-chloro-3-[1-(ethoxymethyl)-1H-tetrazol-5-yl]phenyl}-1-methyl-6-(trifluoromethyl)-2,4(1H,3H)-pyrimidinedione] | 157 °C |
| C=CCn1nnnc1-c1cc(-n2c(=O)cc(C(F)(F)F)n(C)c2=O)ccc1Cl [Compound No 106, 3-[3-(1-allyl-1H-tetrazol-5-yl)-4-chlorophenyl]-1-methyl-6-(trifluoromethyl)-2,4(1H,3H)-pyrimidinedione] | 160 °C |
